Results reported in patent US10556907B2 (AbbVie Inc., priority 2015, dated 2020).
Where a name gives a salt, the structure may show the parent alone.

Columns and labels:
Test in all cases: Method 1: intracellular Ca2+ release (FLIPR, Calcium 5) in recombinant CHO-K1 cells
Format in all cases: cell-based
[1] = target: T1, human S1PR1 receptor (Homo sapiens, UniProt P21453); conditions: (1): determined with method 1; read-out: S1P1 EC50
T1 construct: host or cells: CHO-K1
Procedure, shortened: (§1)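 CHO-K1 cells co-expressing the receptor, aequorin and Gq/i5 were loaded with Calcium 5 dye 1 h at 37° C, then held 45 min at RT. Serially diluted compounds added in HBSS/20 mmol/L Hepes/2.5 mmol/L probenecid/0.1% BSA pH 7.4. FLIPR Tetra fluorescence, normalized to phospho-fingolimod, fitted for EC50.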

[2] = target: T2, human S1PR5 receptor (Homo sapiens, UniProt Q9H228); conditions: agonist potency, determined with method 1 (symbols A-D); read-out: S1P5 EC50 range
T2 construct: host or cells: CHO-K1
T2 sequence (Q9H228 whole entry): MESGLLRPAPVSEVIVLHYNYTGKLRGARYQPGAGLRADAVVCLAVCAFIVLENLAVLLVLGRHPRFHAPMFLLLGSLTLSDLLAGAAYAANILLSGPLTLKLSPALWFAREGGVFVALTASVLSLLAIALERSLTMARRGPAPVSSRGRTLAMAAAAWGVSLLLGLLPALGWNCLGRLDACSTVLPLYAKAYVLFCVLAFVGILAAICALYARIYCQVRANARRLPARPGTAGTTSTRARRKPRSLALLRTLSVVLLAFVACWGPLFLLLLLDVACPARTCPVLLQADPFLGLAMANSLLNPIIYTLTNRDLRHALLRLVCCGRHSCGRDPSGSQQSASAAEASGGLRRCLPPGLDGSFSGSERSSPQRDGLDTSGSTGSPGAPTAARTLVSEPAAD
Procedure, shortened: as §1

[3] = target: T3, human S1PR4 receptor (Homo sapiens, UniProt O95977); conditions: (1): determined with method 1; read-out: S1P4 EC50
T3 construct: host or cells: CHO-K1
T3 sequence (O95977 1-384): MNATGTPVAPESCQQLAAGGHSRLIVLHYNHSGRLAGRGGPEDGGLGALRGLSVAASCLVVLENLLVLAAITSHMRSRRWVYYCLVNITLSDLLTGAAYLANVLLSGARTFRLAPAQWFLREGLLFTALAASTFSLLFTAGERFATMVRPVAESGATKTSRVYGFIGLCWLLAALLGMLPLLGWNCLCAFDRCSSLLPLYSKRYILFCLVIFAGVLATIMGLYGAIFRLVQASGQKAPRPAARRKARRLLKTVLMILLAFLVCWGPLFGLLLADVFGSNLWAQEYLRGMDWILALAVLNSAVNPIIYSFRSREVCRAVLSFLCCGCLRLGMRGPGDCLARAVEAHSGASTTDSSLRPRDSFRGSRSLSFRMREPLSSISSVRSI
Procedure, shortened: as §1

T1 sequence (P21453 whole entry): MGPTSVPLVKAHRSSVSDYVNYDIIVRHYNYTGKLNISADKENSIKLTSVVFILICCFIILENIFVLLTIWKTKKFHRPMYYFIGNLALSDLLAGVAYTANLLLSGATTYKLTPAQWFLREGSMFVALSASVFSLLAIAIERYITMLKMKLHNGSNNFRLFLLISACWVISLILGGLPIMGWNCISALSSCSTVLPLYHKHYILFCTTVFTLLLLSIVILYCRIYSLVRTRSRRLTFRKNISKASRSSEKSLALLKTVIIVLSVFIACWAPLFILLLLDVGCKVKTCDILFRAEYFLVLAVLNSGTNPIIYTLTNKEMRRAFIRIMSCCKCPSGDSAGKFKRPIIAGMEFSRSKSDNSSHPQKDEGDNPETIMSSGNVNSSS

Row | Compound | EC50 [1] | EC50 [2] | EC50 [3]
1 | CC(CC(=O)O)CN1Cc2cnc(-c3ccc(OCc4ccc(Cl)cc4)cc3)nc2CC1(C)C (stereo not drawn) [Compound 329, 4-(2-(4-((4-chlorobenzyl)oxy)phenyl)-7,7-dimethyl-7,8-dihydropyrido[4,3-d]pyrimidin-6(5H)-yl)-3-methylbutanoic acid] | > 1000 nM | 1000 to 10000 nM | > 1000 nM
2 | O=C(O)CC1CC(N2CCc3nc(-c4ccc(OCc5ccc(Cl)c(Cl)c5)cc4)ncc3C2)C1 (stereo not drawn) [Compound 4, 2-(3-(2-(4-((3,4-dichlorobenzyl)oxy)phenyl)-7,8-dihydropyrido[4,3-d]pyrimidin-6(5H)-yl)cyclobutyl)acetic acid] | > 1000 nM | 100 to 1000 nM | > 1000 nM
3 | Cc1ccc(C(F)(F)F)cc1COc1ccc(-c2ncc3c(n2)CCN(CC(C)CC(=O)O)C3)cc1C (stereo not drawn) [Compound 314, 3-methyl-4-[2-[3-methyl-4-[[2-methyl-5-(trifluoromethyl)phenyl]methoxy]phenyl]-7,8-dihydro-5H-pyrido[4,3-d]pyrimidin-6-yl]butanoic acid 2,2,2-trifluoroacetic acid salt] | > 1000 nM | 100 to 1000 nM | > 1000 nM
4 | O=C(O)C1CC(N2CCc3nc(-c4cccc(OCc5ccccc5)c4)cnc3C2)C1 (stereo not drawn) [Compound 208, 3-(2-(3-(benzyloxy)phenyl)-7,8-dihydropyrido[3,4-b]pyrazin-6(5H)-yl)cyclobutanecarboxylic acid] | > 1000 nM | 1000 to 10000 nM | > 1000 nM
5 | O=C(O)CN1CCc2nc(-c3ccc(OCc4cc(F)cc(F)c4)cc3)ncc2C1 [Compound 31, 2-(2-(4-((3,5-difluorobenzyl)oxy)phenyl)-7,8-dihydropyrido[4,3-d]pyrimidin-6(5H)-yl)acetic acid] | > 1000 nM | 100 to 1000 nM | > 1000 nM
6 | Cc1ccc(C(F)(F)F)c(COc2ccc(-c3ncc4c(n3)CCN(CC(C)CC(=O)O)C4)c(F)c2)c1 (stereo not drawn) [Compound 290, 4-[2-[2-fluoro-4-[[5-methyl-2-(trifluoromethyl)phenyl]methoxy]phenyl]-7,8-dihydro-5H-pyrido[4,3-d]pyrimidin-6-yl]-3-methyl-butanoic acid 2,2,2-trifluoroacetic acid salt] | > 1000 nM | 100 to 1000 nM | > 1000 nM
7 | CC(C(=O)O)N1CCc2nc(-c3ccc(OCc4ccccc4)cc3)ncc2C1 (stereo not drawn) [Compound 322, 2-(2-(4-(benzyloxy)phenyl)-7,8-dihydropyrido[4,3-d]pyrimidin-6(5H)-yl)propanoic acid] | > 1000 nM | 1000 to 10000 nM | > 1000 nM
8 | O=C(O)C1CCC(N2CCc3nc(-c4ccc(OCc5ccc(Cl)cc5)cc4)ncc3C2)C1 (stereo not drawn) [Compound 295, 3-(2-(4-((4-chlorobenzyl)oxy)phenyl)-7,8-dihydropyrido[4,3-d]pyrimidin-6(5H)-yl)cyclopentanecarboxylic acid] | > 1000 nM | 100 to 1000 nM | > 1000 nM
9 | CC(C(=O)O)N1CCc2nc(-c3ccc(OCc4cc(F)cc(F)c4)cc3)ncc2C1 (stereo not drawn) [Compound 299, 2-(2-(4-((3,5-difluorobenzyl)oxy)phenyl)-7,8-dihydropyrido[4,3-d]pyrimidin-6(5H)-yl)propanoic acid] | > 1000 nM | 100 to 1000 nM | > 1000 nM
10 | CC(C)(CC(=O)O)CN1CCc2nc(-c3ccc(OCc4cccc(Cl)c4)cc3)ncc2C1 [Compound 216, 4-(2-(4-((3-chlorobenzyl)oxy)phenyl)-7,8-dihydropyrido[4,3-d]pyrimidin-6(5H)-yl)-3,3-dimethylbutanoic acid] | > 1000 nM | 1000 to 10000 nM | > 1000 nM
11 | O=C(O)CN1CCc2nc(Cc3c(F)cccc3F)ncc2C1 [Compound 26, 2-(2-(2,6-difluorobenzyl)-7,8-dihydropyrido[4,3-d]pyrimidin-6(5H)-yl)acetic acid] | > 1000 nM | 1000 to 10000 nM | > 1000 nM
12 | CC(C)(CC(=O)O)CN1CCc2nc(-c3ccc(OCc4cccc(Cl)c4)cc3)cnc2C1 [Compound 211, 4-(2-(4-((3-chlorobenzyl)oxy)phenyl)-7,8-dihydropyrido[3,4-b]pyrazin-6(5H)-yl)-3,3-dimethylbutanoic acid] | > 1000 nM | 1000 to 10000 nM | > 1000 nM
13 | C[C@H](CCO)CN1CCc2nc(-c3ccc(OCc4ccc(Cl)cc4)cc3)ncc2C1 [Compound 315, (R)-4-(2-(4-((4-chlorobenzyl)oxy)phenyl)-7,8-dihydropyrido[4,3-d]pyrimidin-6(5H)-yl)-3-methylbutan-1-ol] | > 1000 nM | 100 to 1000 nM | > 1000 nM

The remaining lines, values ahead:

Row | EC50 [1] | EC50 [2] | EC50 [3] | Compound
14 | > 1000 nM | 1000 to 10000 nM | > 1000 nM | Cc1cccc(COc2ccc(-c3ncc4c(n3)CCN(CC(C)CC(=O)O)C4)cc2C)c1 (stereo not drawn) [Compound 320, 3-methyl-4-[2-[3-methyl-4-(m-tolylmethoxy)phenyl]-7,8-dihydro-5H-pyrido[4,3-d]pyrimidin-6-yl]butanoic acid 2,2,2-trifluoroacetic acid salt]
15 | > 1000 nM | 10 to 100 nM | > 1000 nM | Cc1cc(-c2ncc3c(n2)CCN(C[C@@H](C)CC(=O)O)C3)ccc1OCc1ccccc1 [Compound 261, (S)-4-(2-(4-(benzyloxy)-3-methylphenyl)-7,8-dihydropyrido[4,3-d]pyrimidin-6(5H)-yl)-3-methylbutanoic acid]
16 | > 1000 nM | 10 to 100 nM | > 1000 nM | CC(CC(=O)O)CN1CCc2nc(-c3ccc(CCc4ccccc4)cc3F)ncc2C1 (stereo not drawn) [Compound 280, 4-(2-(2-fluoro-4-phenethylphenyl)-7,8-dihydropyrido[4,3-d]pyrimidin-6(5H)-yl)-3-methylbutanoic acid]
17 | > 1000 nM | 10 to 100 nM | > 1000 nM | CC(CC(=O)O)CN1CCc2nc(-c3ccc(/C=C/c4ccc(Cl)cc4F)cc3)ncc2C1 (stereo not drawn) [Compound 282]
18 | > 1000 nM | 100 to 1000 nM | > 1000 nM | Cc1ccc(COc2ccc(-c3ncc4c(n3)CCN(CC(C)CC(=O)O)C4)c(F)c2)cc1 (stereo not drawn) [Compound 307, 4-[2-[2-fluoro-4-(p-tolylmethoxy)phenyl]-7,8-dihydro-5H-pyrido[4,3-d]pyrimidin-6-yl]-3-methyl-butanoic acid 2,2,2-trifluoroacetic acid salt]
19 | > 1000 nM | 1000 to 10000 nM | > 1000 nM | C[C@H](CC(=O)O)C(=O)N1CCc2nc(-c3ccc(OCc4ccc(Cl)cc4)cc3)ncc2C1 [Compound 332, (R)-4-(2-(4-((4-chlorobenzyl)oxy)phenyl)-7,8-dihydropyrido[4,3-d]pyrimidin-6(5H)-yl)-3-methyl-4-oxobutanoic acid]
20 | > 1000 nM | 100 to 1000 nM | > 1000 nM | Cc1cc(-c2ncc3c(n2)CCN(CC(C)CC(=O)O)C3)ccc1OCc1ccc(C(C)C)cc1 (stereo not drawn) [Compound 310, 4-[2-[4-[(4-isopropylphenyl)methoxy]-3-methyl-phenyl]-7,8-dihydro-5H-pyrido[4,3-d]pyrimidin-6-yl]-3-methyl-butanoic acid 2,2,2-trifluoroacetic acid salt]
21 | > 1000 nM | < 10 nM | > 1000 nM | CC(CC(=O)O)CN1CCc2nc(-c3ccc(CCc4ccc(Cl)cc4)cc3F)ncc2C1 (stereo not drawn) [Compound 255, 4-(2-(4-(4-chlorophenethyl)-2-fluorophenyl)-7,8-dihydropyrido[4,3-d]pyrimidin-6(5H)-yl)-3-methylbutanoic acid]
